One experiment concerns the target T1, recombinant BRD4 BD2 (Homo sapiens, UniProt O60885).
T1 construct: for recombinant BRD4 BD1 and BRD4 BD2 proteins
The experiment in a line: Competitive fluorescence-polarization (FP) binding assay, BRD4 BD2. Conditions: competitive FP, Table 6; read-out: IC50 as determinined in FP assays BRD4 BD2.

The subject of the next experiment is MDA-MB-231. The experiment in a line: Cell growth inhibition, 4-day proliferation assay, MDA-MB-231. Type of experiment: cell-based. Particulars: Homo sapiens, MDA-MB-231; WST-8 assay, Table 7; read-out: Cell growth inhibition (IC50 (nM)) MDA-MB-231. The method, boiled down: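 Cells seeded at 3,000-10,000/well, treated with serially diluted compounds 4 days at 37 °C, 5% CO2. Viability by WST-8 (10% v/v, 1-2 h, A450); readings normalized to DMSO-treated cells, IC50 by four-parameter nonlinear regression.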
In general terms: Tetrazolium assays rely on reduction of a dye to a coloured formazan, in cell work by metabolically active cells.

A further experiment deals with T2, recombinant BRD4 BD1 (Homo sapiens, UniProt O60885).
T2 construct: for recombinant BRD4 BD1 and BRD4 BD2 proteins
The experiment in a line: Competitive fluorescence-polarization (FP) binding assay, BRD4 BD1. Particulars: competitive FP, Table 6; read-out: IC50 as determinined in FP assays BRD4 BD1. On the procedure:
Fluorescence Polarization (FP) competitive binding studies were carried out using a FAM labeled fluorescent probe, see, e.g., Cpd. No. 350 of US 2014/0256706, to determine binding affinities of representative Compounds of the Disclosure for recombinant BRD4 BD1 and BRD4 BD2 proteins. Equilibrium dissociation constants (Kd) values of the fluorescent probe to BRD4 BD1 and BD2 proteins were determined from protein saturation experiments by monitoring the total fluorescence polarization of mixtures composed with the fluorescent probe at a fixed concentration and proteins with increasing concentrations up to full saturation. Serial dilutions of testing proteins were mixed with the fluorescent probe to a final volume of 200 μl in the assay buffer (100 mM phosphate buffer, pH=6.5, 0.01% Triton X-100 (Sigma, 282103) being added right before assays). Final fluorescent probe concentration was 1.5 nM for both proteins. Plates were incubated at room temperature for 30 minutes with gentle shaking to assure equilibrium. FP values in millipolarization units (mP) were measured using the Infinite M-1000 plate reader (Tecan U.S., Research Triangle Park, N.C.) in Microfluor 1 96-well, black, round-bottom plates (Thermo Scientific, Waltham, Mass.) at an excitation wavelength of 485 nm and an emission wavelength of 530 nm. Kd values of the fluorescent probe, which were calculated by fitting the sigmoidal dose-dependent FP increases as a function of protein concentrations using Graphpad Prism 6.0 software (Graphpad Software, San Diego, Calif.), are 5.5 and 3.0 nM to BDR4 BD1 and 2, respectively.
The IC50 and Ki values of compounds were determined in a competitive binding experiment. See US 2014/0256706. Mixtures of 10 μl of the tested compounds in assay buffer with 40% Ethylene Glycol and 190 μl of preincubated protein/probe complex solution in the assay buffer (100 mM potassium phosphate, pH 6.5, 0.01% Triton X-100) were added into assay plates which were incubated at room temperature for 30 minutes with gentle shaking. Final concentrations of proteins were 10 and 6 nM in assays for BRD4 BD1 and BD2, respectively. Final probe concentration is 1.5 nM in both assays. Negative controls containing protein/probe complex only (equivalent to 0% inhibition), and positive controls containing only free probes (equivalent to 100% inhibition), were included in each assay plate. FP values were measured as described above. IC50 values were determined by nonlinear regression fitting of the competition curves. Instead of being calculated from IC50 values as described before. Ki values of competitive inhibitors were obtained directly by nonlinear regression fitting as well, based upon the Kd values of the probe to different proteins, and concentrations of the proteins and probes in the competitive assays (US 2014/0256706; Wang, FEBS Lett. 360:111 (1995); Zhang et al., Analytical Biochemistry, 331:138 (2004)).
Representative compounds in Table 5 were evaluated for their binding affinities to BRD4 BD1 and BD2 proteins using the Competitive Fluorescence-Polarization (FP) Assays described in Example 6, with the data included in Table 6.

For a further experiment, the system named is MOLM-13. The experiment in a line: Cell growth inhibition, 4-day proliferation assay, MOLM-13. Type of experiment: cell-based. Conditions: Homo sapiens, MOLM-13, WST-8 assay, Table 7; read-out: Cell growth inhibition (IC50 (nM)) MOLM-13.

What is called IC50 is the concentration that gives 50% inhibition.

`Cc1c(C#Cc2ccccn2)sc2c1C(c1ccc(Cl)cc1)=N[C@@H](Cc1nnc(C3CC3)o1)c1nnc(C)n1-2` [Compound 136, (S)-2-((4-(4-chlorophenyl)-3,9-dimethyl-2-(pyridin-2-ylethynyl)-6H-thieno[3,2-f][1,2,4]triazolo[4,3-a][1,4]diazepin-6-yl)methyl)-5-cyclopropyl-1,3,4-oxadiazole]: the IC50 is 60.1 nM on recombinant BRD4 BD2, 52.1 nM in the experiment on MDA-MB-231, 11.3 nM at recombinant BRD4 BD1 and 28.1 nM in the experiment with MOLM-13.

As for `Cc1c(C#Cc2cccnc2)sc2c1C(c1ccc(Cl)cc1)=N[C@@H](CC(=O)N1CCNCC1)c1nnc(C)n1-2` [Compound 116, (S)-2-(4-(4-chlorophenyl)-3,9-dimethyl-2-(pyridin-3-ylethynyl)-6H-thieno[3,2-f][1,2,4]triazolo[4,3-a][1,4]diazepin-6-yl)-1-(piperazin-1-yl)ethan-1-one], the half-maximal inhibitory concentration (IC50) was 122 nM at recombinant BRD4 BD2, 45.3 nM in the experiment with MDA-MB-231, 10.4 nM on recombinant BRD4 BD1 and 17.3 nM with MOLM-13.

On to `Cc1c(C#Cc2ccc(N)nc2)sc2c1C(c1ccc(Cl)cc1)=N[C@@H](CC(N)=O)c1nnc(C)n1-2` [Compound 121, (S)-2-(2-((6-aminopyridin-3-yl)ethynyl)-4-(4-chlorophenyl)-3,9-dimethyl-6H-thieno[3,2-f][1,2,4]triazolo[4,3-a][1,4]diazepin-6-yl)acetamide], for which the IC50 stood at 8.4 nM at recombinant BRD4 BD2, 21.9 nM with MDA-MB-231, 10.6 nM at recombinant BRD4 BD1 and 4.76 nM with MOLM-13.

As to `Cc1c(C#Cc2cccnc2)sc2c1C(c1ccc(Cl)cc1)=N[C@@H](CC(=O)N1CCC(O)CC1)c1nnc(C)n1-2` [Compound 117, (S)-2-(4-(4-chlorophenyl)-3,9-dimethyl-2-(pyridin-3-ylethynyl)-6H-thieno[3,2-f][1,2,4]triazolo[4,3-a][1,4]diazepin-6-yl)-1-(4-hydroxypiperidin-1-yl)ethan-1-one], the half-inhibitory concentration (IC50) turned out to be 10.4 nM at recombinant BRD4 BD2, 79.6 nM with MDA-MB-231, 6.3 nM on recombinant BRD4 BD1 and 19.8 nM with MOLM-13.

Regarding `Cc1c(C#Cc2ccccn2)sc2c1C(c1ccc(Cl)cc1)=N[C@@H](CC(=O)N1CC3(COC3)C1)c1nnc(C)n1-2` [Compound 124, (S)-2-(4-(4-chlorophenyl)-3,9-dimethyl-2-(pyridin-2-ylethynyl)-6H-thieno[3,2-f][1,2,4]triazolo[4,3-a][1,4]diazepin-6-yl)-1-(2-oxa-6-azaspiro[3.3]heptan-6-yl)ethan-1-one], the IC50 on recombinant BRD4 BD2 is 62 nM; in the experiment on MDA-MB-231 it was 86.3 nM; on recombinant BRD4 BD1, 10.9 nM; with MOLM-13, 57.4 nM.

For `Cc1c(C#Cc2ccc(N)nc2)sc2c1C(c1ccc(Cl)cc1)=N[C@@H](CC(=O)N1CCN(C)CC1)c1nnc(C)n1-2` [Compound 120, (S)-2-(2-((6-aminopyridin-3-yl)ethynyl)-4-(4-chlorophenyl)-3,9-dimethyl-6H-thieno[3,2-f][1,2,4]triazolo[4,3-a][1,4]diazepin-6-yl)-1-(4-methylpiperazin-1-yl)ethan-1-one], the IC50 at recombinant BRD4 BD2 was found to be 4.9 nM; with MDA-MB-231, 9.74 nM; on recombinant BRD4 BD1 it was 5.3 nM; with MOLM-13, 9.64 nM.

Take `CC(=O)NNC(=O)C[C@@H]1N=C(c2ccc(Cl)cc2)c2c(sc(C#Cc3ccccn3)c2C)-n2c(C)nnc21` [Compound 128, (S)—N′-acetyl-2-(4-(4-chlorophenyl)-3,9-dimethyl-2-(pyridin-2-ylethynyl)-6H-thieno[3,2-f][1,2,4]triazolo[4,3-a][1,4]diazepin-6-yl)acetohydrazide]: the IC50 was found to be 12.8 nM on recombinant BRD4 BD2, 202 nM in the experiment on MDA-MB-231, 21.7 nM on recombinant BRD4 BD1 and 42.6 nM with MOLM-13.

`Cc1c(C#Cc2ccccn2)sc2c1C(c1ccc(Cl)cc1)=N[C@@H](CC(=O)N1CC(F)(F)C1)c1nnc(C)n1-2` [Compound 127, (S)-2-(4-(4-chlorophenyl)-3,9-dimethyl-2-(pyridin-2-ylethynyl)-6H-thieno[3,2-f][1,2,4]triazolo[4,3-a][1,4]diazepin-6-yl)-1-(3,3-difluoroazetidin-1-yl)ethan-1-one]: the half-maximal inhibitory concentration (IC50) amounted to 79 nM on recombinant BRD4 BD2, 47 nM in the experiment with MDA-MB-231, 25.9 nM at recombinant BRD4 BD1 and 57 nM with MOLM-13.

In the case of `Cc1c(C#Cc2cccnc2)sc2c1C(c1ccc(Cl)cc1)=N[C@@H](CC(=O)OC(C)(C)C)c1nnc(C)n1-2` [Compound 111, tert-butyl (S)-2-(4-(4-chlorophenyl)-3,9-dimethyl-2-(pyridin-3-ylethynyl)-6H-thieno[3,2-f][1,2,4]triazolo[4,3-a][1,4]diazepin-6-yl)acetate], the half-maximal inhibitory concentration (IC50) on recombinant BRD4 BD2 was found to be 17 nM; with MDA-MB-231 it was 98.6 nM; on recombinant BRD4 BD1, 4.8 nM; with MOLM-13, 32.7 nM.

As for `Cc1c(C#Cc2cccnc2)sc2c1C(c1ccc(Cl)cc1)=N[C@@H](CC(=O)N1CCOCC1)c1nnc(C)n1-2` [Compound 118, (S)-2-(4-(4-chlorophenyl)-3,9-dimethyl-2-(pyridin-3-ylethynyl)-6H-thieno[3,2-f][1,2,4]triazolo[4,3-a][1,4]diazepin-6-yl)-1-morpholinoethan-1-one], the IC50 was 27.7 nM at recombinant BRD4 BD2, 103 nM in the experiment on MDA-MB-231, 6.1 nM on recombinant BRD4 BD1 and 9.2 nM in the experiment with MOLM-13.

As for `Cc1c(C#Cc2ccccn2)sc2c1C(c1ccc(Cl)cc1)=N[C@@H](CC(=O)N1CCC(O)CC1)c1nnc(C)n1-2` [Compound 123, (S)-2-(4-(4-chlorophenyl)-3,9-dimethyl-2-(pyridin-2-ylethynyl)-6H-thieno[3,2-f][1,2,4]triazolo[4,3-a][1,4]diazepin-6-yl)-1-(4-hydroxypiperidin-1-yl)ethan-1-one], the concentration for half-maximal inhibition (IC50) on recombinant BRD4 BD2 is 59.4 nM; in the experiment on MDA-MB-231 it was 61.1 nM; at recombinant BRD4 BD1, 20.4 nM; in the experiment with MOLM-13, 71.6 nM.

Turning to `Cc1c(C#Cc2ccccn2)sc2c1C(c1ccc(Cl)cc1)=N[C@@H](CC(C)C)c1nnc(C)n1-2` [Compound 105, (S)-4-(4-chlorophenyl)-6-isobutyl-3,9-dimethyl-2-(pyridin-2-ylethynyl)-6H-thieno[3,2-f][1,2,4]triazolo[4,3-a][1,4]diazepine], the IC50 on recombinant BRD4 BD2 came to 26.5 nM; in the experiment with MDA-MB-231, 400 ± 200 nM; on recombinant BRD4 BD1, 33.9 nM; in the experiment with MOLM-13 it was 348 nM.

Consider `CCNC(=O)C[C@@H]1N=C(c2ccc(Cl)cc2)c2c(sc(C#Cc3cccnc3)c2C)-n2c(C)nnc21` [Compound 114, (S)-2-(4-(4-chlorophenyl)-3,9-dimethyl-2-(pyridin-3-ylethynyl)-6H-thieno[3,2-f][1,2,4]triazolo[4,3-a][1,4]diazepin-6-yl)-N-ethylacetamide], for which the IC50 on recombinant BRD4 BD2 was 4.7 nM; in the experiment on MDA-MB-231 it was 39.4 nM; on recombinant BRD4 BD1, 8.2 nM; in the experiment with MOLM-13 it was 13.8 nM.

For `Cc1c(C#Cc2ccccn2)sc2c1C(c1ccc(Cl)cc1)=N[C@@H](CC(=O)N1CCC(F)(F)CC1)c1nnc(C)n1-2` [Compound 132, (S)-2-(4-(4-chlorophenyl)-3,9-dimethyl-2-(pyridin-2-ylethynyl)-6H-thieno[3,2-f][1,2,4]triazolo[4,3-a][1,4]diazepin-6-yl)-1-(4,4-difluoropiperidin-1-yl)ethan-1-one], the IC50 at recombinant BRD4 BD2 was 33.5 nM; in the experiment on MDA-MB-231, 91.9 nM; on recombinant BRD4 BD1, 22.4 nM; in the experiment on MOLM-13, 80 to 160 nM.
